Data on one compound can be found in patent publication US10294202B2, “Pyrrolidinones as herbicides” (FMC Corporation, priority 2013, dated 2019).

In one assay the test system is wheat. In words: Test A pre-/postemergence herbicide test. The assay is classed as in vivo, Triticum aestivum. The conditions noted are these: 1000 g ai/ha. In short, it runs like this:
(§1)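 Directed soil spray to seeded pots (preemergence) or spray onto one- to two-leaf seedlings 2–10 cm tall (postemergence); loam/sand substrate throughout. Evaluated visually after about 10 days against untreated plants, 0 = no effect, 100 = complete control.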

For a further assay, the system named is morningglory. In words: Test A pre-/postemergence herbicide test. The conditions noted are these: 1000 g ai/ha. In kind it is in vivo, Ipomoea spp. In short, it runs like this:
as §1

Another assay relates to corn. In words: Test A pre-/postemergence herbicide test. In kind it is in vivo, Zea mays. The conditions noted are these: 1000 g ai/ha. In short, it runs like this: as §1
In a further assay the test system is ducksalad. In words: Test C flooded paddy test. The assay is classed as in vivo, Heteranthera limosa. The conditions noted are these: Flood. Put shortly:
(§2)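 2-leaf stage; flood 3 cm over soil; compound into paddy water; depth held; greenhouse 13–15 d; visual % control vs untreated (0 = none, 100 = complete); "-" = not tested.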

The next assay has as its system giant foxtail. In words: Test A pre-/postemergence herbicide test. The assay is classed as in vivo, Setaria faberii. The conditions noted are these: 1000 g ai/ha. In short, it runs like this: as §1
For another assay, the system named is crabgrass, large. In words: Test A pre-/postemergence herbicide test. The assay is classed as in vivo, Digitaria sanguinalis. The conditions noted are these: 1000 g ai/ha. In short, it runs like this:
as §1

Another assay has as its system sedge, umbrella. In words: Test C flooded paddy test. The assay is classed as in vivo, Cyperus difformis. The following applies: Flood. An excerpt: (§3) Plant species in the flooded paddy test consisted of rice (Oryza sativa), sedge, umbrella (small-flower umbrella sedge, Cyperus difformis), ducksalad (Heteranthera limosa), and barnyardgrass (Echinochloa crus-galli) grown to the 2-leaf stage for testing. At time of treatment, test pots were flooded to 3 cm above the soil surface, treated by application of test compounds directly to the paddy water, and then maintained at that water depth for the duration of the test. Treated plants and controls were maintained in a greenhouse for 13 to 15 days, after which time all species were compared to controls and visually evaluated. Plant response ratings, summarized in Table C, are based on a scale of 0 to 100 where 0 is no effect and 100 is complete control. A dash (-) response means no test result.

The subject of the next assay is velvetleaf. In words: Test A pre-/postemergence herbicide test. In kind it is in vivo, Abutilon theophrasti. The following applies: 1000 g ai/ha. In short, it runs like this:
as §1

In assay [1] the test system is barnyardgrass. In words: Test C flooded paddy test. The assay is classed as in vivo, Echinochloa crus-galli. The following applies: Flood.
Text: as §3

In the next assay the test system is rice. In words: Test C flooded paddy test. In kind it is in vivo, Oryza sativa. The following applies: Flood. In short, it runs like this: as §2
The next assay deals with pigweed. In words: Test A pre-/postemergence herbicide test. The conditions noted are these: 1000 g ai/ha. The assay is classed as in vivo, Amaranthus retroflexus. In short, it runs like this:
as §1

Assay [2] concerns barnyardgrass. In words: Test A pre-/postemergence herbicide test. In kind it is in vivo, Echinochloa crus-galli. The following applies: 1000 g ai/ha. Put shortly: as §1
[3] abbreviates: Postemergence, 0 to 100 scale (0 no effect, 100 complete control).
Where [4] appears, read: Preemergence, visual rating on 0 to 100 scale (0 no effect, 100 complete control), approx. 10 days.
Where [5] appears, read: 62 g ai/ha, scale of 0 to 100 where 0 is no effect and 100 is complete control, 13 to 15 days.

On to `O=C1NCC(c2ccc(Cl)c(Cl)c2)C1C(=O)Nc1cccc(F)c1F` (racemic) [Compound 25], for which the “Plant response rating, Wheat” value in the assay on wheat (setting [3]) and in the assay on wheat (setting [4]) was 0 throughout. In addition, the results for the “Plant response rating, Morningglory” value in the assay on morningglory (setting [3]) and in the assay on morningglory (setting [4]) were 10 and 0, respectively. In addition, the “Plant response rating, Corn” value in the assay with corn (setting [3]) and in the assay with corn (setting [4]) was 0 each time. For the same compound, the “Plant response rating, Ducksalad” value in the assay on ducksalad (setting [5]) came to 0; with ducksalad (250 g ai/ha, scale 0 to 100) it was 60. In addition, the “Plant response rating, Foxtail, Giant” value in the assay on giant foxtail (setting [3]) and in the assay on giant foxtail (setting [4]) was 90 throughout. Besides, the “Plant response rating, Crabgrass, Large” value came to 80 in the assay on crabgrass, large (setting [3]) and 90 in the assay on crabgrass, large (setting [4]). Moreover, the “Plant response rating, Sedge, Umbrella” value was found to be 0 with sedge, umbrella (setting [5]) and 0 with sedge, umbrella (250 g ai/ha, scale 0 to 100). In addition, the “Plant response rating, Velvetleaf” value in the assay with velvetleaf (setting [3]) turned out to be 10; in the assay on velvetleaf (setting [4]) it was 0. For the same compound, the “Plant response rating, Barnyardgrass” value is listed as 0 in the assay on barnyardgrass [1] (setting [5]); 0 in the assay on barnyardgrass [1] (250 g ai/ha, scale 0 to 100); 80 with barnyardgrass [2] (setting [3]); 80 with barnyardgrass [2] (setting [4]). Moreover, the “Plant response rating, Rice” value is given as 0 in the assay with rice (setting [5]) and 0 in the assay on rice (250 g ai/ha, scale 0 to 100). Besides, the “Plant response rating, Pigweed” value in the assay with pigweed (setting [3]) and with pigweed (setting [4]) was 0 each time.
